Laboratory results from US12605452B2, “Compounds that degrade kinases and uses thereof” (Regents of the University of Minnesota, priority 2019, dated 2026).
pIC50, pKd: −log10 of the molar value.

How the values were obtained:
Aurora-A [1] = molecular target: T1, Aurora-A (Homo sapiens, UniProt O14965); assay: in vitro kinase binding, Aurora-A
T1 sequence (O14965 1-403): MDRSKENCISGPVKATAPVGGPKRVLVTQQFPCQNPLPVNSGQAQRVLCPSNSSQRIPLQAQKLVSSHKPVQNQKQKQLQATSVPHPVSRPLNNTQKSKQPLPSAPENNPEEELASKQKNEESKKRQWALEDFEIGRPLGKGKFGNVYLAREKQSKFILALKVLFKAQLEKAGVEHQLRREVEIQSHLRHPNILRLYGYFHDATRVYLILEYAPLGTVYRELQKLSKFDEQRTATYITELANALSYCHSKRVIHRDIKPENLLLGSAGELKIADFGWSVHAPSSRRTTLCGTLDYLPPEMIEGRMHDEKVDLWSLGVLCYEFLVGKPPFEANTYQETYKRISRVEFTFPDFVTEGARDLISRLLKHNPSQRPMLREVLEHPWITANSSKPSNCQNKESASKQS

CDK4-CyclinD1 = CDK4-CyclinD1 (Homo sapiens, UniProt P11802); assay: in vitro kinase binding, CDK4-CyclinD1
[2] = system: MCF-7, HCC38, Huh7, IMR-32 and SK-N-BE(2) cells; assay: Alamar blue cellular viability assay, all tested cell lines; assay type: cell-based; conditions: range over all tested cell lines; read-out: IC50, cytotoxicity
Protocol: (§1) MCF-7 cells were cultured in complete Dulbecco's modified Eagle medium (DMEM) supplemented with 10% (vol/vol) heat-inactivated fetal bovine serum (FBS), 100 U/ml penicillin and 100 μg/ml streptomycin. HCC38 cells were cultured in RPMI medium with 10% FBS, 100 U/ml penicillin and 100 μg/ml streptomycin. Huh7 cells were cultured in DMEM medium with 10% FBS, 100 U/ml penicillin and 100 μg/ml streptomycin supplemented with 1% MEM non-essential amino acids (SIGMA M7145). IMR-32 and SK-N-BE(2) cells were cultured in Eagle's Minimum Essential Medium (EMEM) with 10% FBS, 100 U/ml penicillin and 100 μg/ml streptomycin. All the cell lines were maintained in a humidified incubator at 37° C. and 5% CO2.
(§2) Cancer cells were seeded in media (50 μL) 24 h prior to treatment with compounds in 96-well plates. For MCF-7 and Huh7 cells, the seeding density is 2,500 cells/well; for HCC38, the density is 2,000 cells/well; and for IMR-32 and SK-N-BE(s), the density is 5,000 cells/well. Compounds were serially diluted in pre-warmed media and dosed to cells (final volume=100 μL; final DMSO concentration=0.5%). […] After 2 hours treatment period, the fluorescence of each well was read using a BioTek Synergy H1 plate reader. […]

p53 and p21 = assay: immunoblotting, abundance of downstream signaling proteins in MCF-7 cells; assay type: cell-based; conditions: 4 hours and 24 hours
Protocol: as §1
(§3) Cells were treated with 13 and other compounds at indicated concentrations and incubation time. […] The protein concentration was determined using the Pierce BCA protein Assay kit and normalized before the samples were reduced in […] sample buffer and denatured at 95° C. in a heated block for 10 mins. […] The images were detected using Li-Cor Odyssey Fc imaging system and the immunoblots were quantified by densitometry using ImageJ software.

Aurora-A [3] = molecular target: T1, Aurora-A; assay: immunoblotting, degradation of Aurora-A in MCF-7 cells; assay type: cell-based; design: endogenous in cells; host or cells: MCF-7
Protocol: as §1
(§4) Cells were treated with 13 and other compounds at indicated concentrations and incubation time. Cells were gently rinsed once with ice-cold PBS and then lysed in radioimmnuoprecipitation assay (RIPA) lysis buffer (50 mM Tris-HCl pH 7.4, 150 mM NaCl, 1% NP-40, 0.5% sodium deoxycholate, 0.1% SDS, 5 mM EDTA, 1 mM EGTA) supplemented with 1% protease inhibitor cocktail (Roche cOmplete) and 1% phosphatase inhibitor cocktail (PhosSTOP). Cell lysates were incubated on ice for 15 mins and then kept at −80° C. before further use. The lysates were thawed on ice and the supernatants were collected after centrifugation (@11,000 rpm) for 15 min at 4° C. The protein concentration was determined using the Pierce BCA protein Assay kit and normalized before the samples were reduced in […] sample buffer and denatured at 95° C. in a heated block for 10 mins. An equal amount of protein samples (10-30 μg per lane) were resolved using 4-20% Tris-glycine gels and transferred onto PVDF blotting membranes. Primary antibodies CDK4 (DCS-35, 1:2000), N-Myc (B8.4.B, 1:5000), p21 (F-5, 1:500), p53 (DO-1, 1:1000), Aurora-A (1G4, 1:1000), β-actin (A1978, 1:2000) were used for immunoblotting. The images were detected using Li-Cor Odyssey Fc imaging system and the immunoblots were quantified by densitometry using ImageJ software.

CDK4 = molecular target: T2, CDK4 (Homo sapiens, UniProt P11802); assay: immunoblotting, degradation of CDK4 in MCF-7 cells; assay type: cell-based
T2 construct: endogenous in cells; host or cells: MCF-7
Protocol: as §1, §4

[4] = system: IMR-32 and SK-N-BE(2) cells; assay: Alamar blue cellular viability assay, MYCN amplified neuroblastoma cells; assay type: cell-based; conditions: 3 days
Protocol: as §1, §2

N-Myc = assay: immunoblotting, N-Myc depletion in MYCN amplified neuroblastoma cell lines; assay type: cell-based; conditions: IMR-32 and SK-N-BE(2) cells, 0.5 μM, after 24 hours
Protocol: as §1, §3

Aurora-A and N-Myc = molecular target: T3, Aurora-A and N-Myc (Homo sapiens, UniProt O14965); assay: immunoblotting, dose-dependent degradation of Aurora-A and N-Myc in SK-N-BE(2) cells; assay type: cell-based; conditions: for degradation of Aurora-A and N-Myc (in words): 24 hours, dose series
T3 construct: endogenous in cells; host or cells: SK-N-BE(2)
T3 sequence (O14965 1-403): T1 sequence (O14965 1-403)
Protocol: as §1, §4

[5] = system: MCF-7 breast cancer cells; assay: cell cycle analysis using propidium iodide DNA staining; assay type: cell-based; conditions: compound treatment for 48 hours
MCF-7 cells = assay: Alamar blue cellular viability assay, MCF-7; assay type: cell-based
Protocol: as §1, §2

HCC38 = assay: Alamar blue cellular viability assay, HCC38; assay type: cell-based; conditions: HCC38, ribociclib-resistant, 5 days
Protocol: as §1, §2

Huh7 = assay: Alamar blue cellular viability assay, Huh7; assay type: cell-based; conditions: Huh7, ribociclib-resistant, 5 days
Protocol: as §1, §2

cyclin D1 = assay: immunoblotting, degradation of cyclin D1 in MCF-7 cells; assay type: cell-based
Protocol: as §1, §3

[6] = system: Cyclin D and CDK4 complexes; assay: Western blot, degradation of Cyclin D and CDK4 complexes in MCF-7 cells; assay type: cell-based; conditions: MCF-7 breast cancer cells

Chain of CDK4-CyclinD1 (P11802 whole entry): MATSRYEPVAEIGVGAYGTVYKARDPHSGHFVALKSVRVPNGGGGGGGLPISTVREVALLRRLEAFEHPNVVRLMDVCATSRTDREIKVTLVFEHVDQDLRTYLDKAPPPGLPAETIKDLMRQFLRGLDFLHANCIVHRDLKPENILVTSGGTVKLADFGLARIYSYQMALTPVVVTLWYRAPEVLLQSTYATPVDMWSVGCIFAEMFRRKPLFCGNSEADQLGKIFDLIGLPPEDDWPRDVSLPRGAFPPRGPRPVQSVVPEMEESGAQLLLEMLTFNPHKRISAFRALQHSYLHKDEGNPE
Chain of CDK4-CyclinD1 (P24385 whole entry partner): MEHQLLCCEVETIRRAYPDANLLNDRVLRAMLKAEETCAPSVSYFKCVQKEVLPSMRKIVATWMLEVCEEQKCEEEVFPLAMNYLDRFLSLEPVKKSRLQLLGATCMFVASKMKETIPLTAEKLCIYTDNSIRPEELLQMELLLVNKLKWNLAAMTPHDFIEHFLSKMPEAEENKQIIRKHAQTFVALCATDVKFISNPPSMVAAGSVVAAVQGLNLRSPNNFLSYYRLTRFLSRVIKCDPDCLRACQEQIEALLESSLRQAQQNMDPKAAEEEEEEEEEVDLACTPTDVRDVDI
T2 sequence (P11802 whole entry): as the sequence (P11802 whole entry) above

CNC(=O)c1ccc(Nc2ncc3cc(C(=O)N(C)C)n(C4CCCC4)c3n2)cc1 [Compound 11, 7-cyclopentyl-N,N-dimethyl-2-((4-(methylcarbamoyl)phenyl)amino)-7H-pyrrolo[2,3-d]pyrimidine-6-carboxamide]
pKd (Aurora-A [1]): 9.07
pKd (CDK4-CyclinD1): 8.52

CNC(=O)c1ccc(Nc2ncc3cc(C(=O)N(C)C)n(C4CCCC4)c3n2)nc1 [Compound 12, 7-cyclopentyl-N,N-dimethyl-2-((5-(methylcarbamoyl)pyridin-2-yl)amino)-7H-pyrrolo[2,3-d]pyrimidine-6-carboxamide]
binding affinity with Aurora-A (in words) (Aurora-A [1]): significant decrease of binding affinity with Aurora-A

CN(C)C(=O)c1cc2cnc(Nc3ccc(C(=O)NCCCCCCOc4cccc5c4C(=O)N(C4CCC(=O)NC4=O)C5=O)cc3)nc2n1C1CCCC1 (stereo not drawn) [Compound 13, 7-cyclopentyl-2-((4-((6-((2-(2,6-dioxopiperidin-3-yl)-1,3-dioxoisoindolin-4-yl)oxy)hexyl)carbamoyl)phenyl)amino)-N,N-dimethyl-7H-pyrrolo[2,3-d]pyrimidine-6-carboxamide]
binding affinity with Aurora-A (in words) (Aurora-A [1]): maintains its binding affinity to Aurora-A
pIC50 [2]: 6.87 to 7.74
effect on p21 abundance (p53 and p21): increased the abundance
effect on p53 (p53 and p21): significantly stabilized p53
degradation of Aurora-A (in words) (Aurora-A [3]): rapidly and potently induce the degradation of Aurora-A
half-life of Aurora-A (Aurora-A [3]; 100 nM compound): 1.9 h
degradation potency for Aurora-A at high concentration (hook effect) (Aurora-A [3]; 2 μM): lower degradation potency
DC50 (Aurora-A [3]; 4 hours, read-out: DC50 (half-maximal degradation concentration) for Aurora-A): 20 nM
Dmax (Aurora-A [3]; MCF7, after 4 hours, read-out: Dmax (maximum degradation efficacy) for Aurora-A): ~94%
degradation of CDK4 (in words) (CDK4): no obvious degradation of CDK4 was observed
cytotoxic potency compared to CD532 [4]: more potent than CD532
depletion of N-Myc (N-Myc): almost complete depletion of N-Myc
potency for depleting N-Myc protein compared to MLN8237 and CD532 (Aurora-A and N-Myc): more potent
degradation of Aurora-A and N-Myc (in words) (Aurora-A and N-Myc): induced the degradation of Aurora-A and N-Myc in a dose-dependent manner
cell cycle effect [5]: potent G2/M phase arrest

CN(C)C(=O)c1cc2cnc(Nc3ccc(C(=O)NCCCCCCOc4cccc5c4C(=O)N(C4CCC(=O)NC4=O)C5=O)cn3)nc2n1C1CCCC1 (stereo not drawn) [Compound 14, 7-cyclopentyl-2-((5-((6-((2-(2,6-dioxopiperidin-3-yl)-1,3-dioxoisoindolin-4-yl)oxy)hexyl)carbamo-yl)pyridin-2-yl)amino)-N,N-dimethyl-7H-pyrrolo[2,3-d]pyrimidine-6-carboxamide]
pKd (Aurora-A [1]): 6.42

CN(C)C(=O)c1cc2cnc(Nc3ccc(C(=O)NCCCCCCOc4cccc5c4C(=O)N(C4CCC(=O)N(C)C4=O)C5=O)cc3)nc2n1C1CCCC1 (stereo not drawn) [Compound 15, 7-cyclopentyl-N,N-dimethyl-2-((4-((6-((2-(1-methyl-2,6-dioxopiperidin-3-yl)-1,3-dioxoisoindolin-4-yl)oxy)hexyl)carbamoyl)phenyl)amino)-7H-pyrrolo[2,3-d]pyrimidine-6-carboxamide]
binding affinity with Aurora-A (in words) (Aurora-A [1]): maintains similar binding profile as the active form 13
potency shift from 13 (cytotoxicity) (MCF-7 cells; MCF-7 cells, 5 days): 4,4 fold
potency shift from 13 (cytotoxicity) (HCC38): 8.2 fold
degradation of Aurora-A and N-Myc (in words) (Aurora-A and N-Myc): did not affect the protein abundance even at the highest test concentration
potency shift from 13 (cytotoxicity) (Huh7): 20.8 fold

CC(=O)c1c(C)c2cnc(Nc3ccc(C(=O)NCCCCCCOc4cccc5c4C(=O)N(C4CCC(=O)NC4=O)C5=O)cc3)nc2n(C2CCCC2)c1=O (stereo not drawn) [Compound 16, 4-((6-acetyl-8-cyclopentyl-5-methyl-7-oxo-7,8-dihydropyrido[2,3-d]pyrimidin-2-yl)amino)-N-(6-((2-(2,6-dioxopiperidin-3-yl)-1,3-dioxoisoindolin-4-yl)oxy)hexyl)benzamide]
binding affinity with Aurora-A (in words) (Aurora-A [1]): weak binding
degradation of Aurora-A (in words) (Aurora-A [3]): weakly active
degradation of CDK4 (in words) (CDK4): weakly active
binding to CDK4 (in words) (CDK4-CyclinD1): weak binding

Cc1nc2c(F)cc(-c3nc(Nc4ccc(C(=O)NCCCCCCOc5cccc6c5C(=O)N(C5CCC(=O)NC5=O)C6=O)cc4)ncc3F)cc2n1C(C)C (stereo not drawn) [Compound 17, N-(6-((2-(2,6-dioxopiperidin-3-yl)-1,3-dioxoisoindolin-4-yl)oxy)hexyl)-4-((5-fluoro-4-(4-fluoro-1-isopropyl-2-methyl-1H-benzo[d]imidazol-6-yl)pyrimidin-2-yl)amino)benzamide]
binding affinity with Aurora-A (in words) (Aurora-A [1]): weak binding affinity
degradation of cyclin D1 (in words) (cyclin D1): strong potency
degradation of Aurora-A (in words) (Aurora-A [3]): strong potency
degradation of CDK4 (in words) (CDK4): strong potency
pKd (CDK4-CyclinD1): 7.64

Cc1nc2c(F)cc(-c3nc(Nc4ccc(NC(=O)CCCCCCOc5cccc6c5C(=O)N(C5CCC(=O)NC5=O)C6=O)cc4)ncc3F)cc2n1C(C)C (stereo not drawn) [Compound 18, 7-((2-(2,6-dioxopiperidin-3-yl)-1,3-dioxoisoindolin-4-yl)oxy)-N-(4-((5-fluoro-4-(4-fluoro-1-isopropyl-2-methyl-1H-benzo[d]imidazol-6-yl)pyrimidin-2-yl)amino)phenyl)heptanamide]
cytotoxicity in MCF-7 cells (in words) (MCF-7 cells; palbociclib- and abemaciclib-analogue-based degraders): the most potent compound

CN(C)C(=O)c1cc2cnc(Nc3ccc(C(=O)NCCCCCCNc4cccc5c4C(=O)N(C4CCC(=O)NC4=O)C5=O)cc3)nc2n1C1CCCC1 (stereo not drawn) [Compound 22, 7-cyclopentyl-2-((4-((6-((2-(2,6-dioxopiperidin-3-yl)-1,3-dioxoisoindolin-4-yl)amino)hexyl)carbamoyl)-phenyl)amino)-N,N-dimethyl-7H-pyrrolo[2,3-d]pyrimidine-6-carboxamide]
degradation of Cyclin D and CDK4 complexes [6]: degrades Cyclin D and CDK4 complexes in a dose-dependent and time-dependent manner

CN(C)C(=O)c1cc2cnc(Nc3ccc(N4CCNCC4)cn3)nc2n1C1CCCC1 [ribociclib, reference compound]
cell cycle effect [5]: induces G0/G1 arrest
